Data reported in patent US6602914B2, “Compounds and methods for the inhibition of the expression of VCAM-1” (AtheroGenics, Inc., priority 1997, dated 2003).

Tested on: VCAM-1
Experiment: VCAM-1 Assay: TNF-stimulated cells, cell-surface ELISA
Assay type: cell-based
Details: for IC50: bare number = IC50, NE not defined in the patent, read-out: VCAM-1 IC50 or % inhibition at [μM]: IC50; for VCAM-1 % inhibition at [μM]: at 50 μM
Protocol: Two to four confluent P150 plates are trypsinized and the cells transferred to a 50 mL conical centrifuge tube. The cells are pelleted, resuspended, and counted using the trypan blue exclusion method.
Cells are resuspended at a concentration of 36,000 cells/mL and 1 mL is aliquoted per well.
Cells are split into 24 well tissue culture plates. The cells in each well should be approximately 90-95% confluent by the following day. Cells should not be older than passage 8.
Compounds are initially screened at 50 μM and 10 μM. A 50 mM stock solution for each compound is prepared in culture medium. The stock solution is diluted to 5 mM and 1 mM. When 10 μL of the 5 mM solution is added to the well (1 mL medium/well), the final concentration will be 50 μM. Adding 10 μL of the 1 mM solution to the well will give a final concentration of 10 μM.
Compounds which will not go into solution in culture medium are resuspended in DMSO at a concentration of 25 mM. The stock solution is then diluted to the final concentration in culture medium. The old medium is aspirated and 1 mL of the new medium with the compound is added. For example, if the final concentration is 50 μM, the 2 μL of the 25 mM stock is added per mL of culture medium. The […] solution is diluted for lower concentrations.
The compounds are added to the plate (each compound is done in duplicate). One plate is done for VCAM expression and one plate is done for ICAM expression.
Immediately after the compounds are added, TNF is added to each well. 100 units/mL TNF is usually added to each well. Since each lot of TNF varies in the number of units, each new lot is titrated to determine the optimum concentration. Therefore this concentration will change. If 100 units/mL is bing used, dilute the TNF to 10 units/μL and add 10 μL to each well.
The plates are incubated at 37° C., 5% CO2 overnight (approximately 16 hours). The next day the plates are checked under the microscope to see if there are any visual signs of toxicity. Records are made of any cell death, debris, or morphology changes, as well as insoluble compounds (particulate or turbity).
In order to assess MCP-1, the media (500 μL) is saved and frozen at −70° C. Wash cells once with roughly 1 ml/well of Hanks Balance Salt Solution (HBSS) or PBS. Gently empty the wash solution and then tap the plate onto paper towels. Add either 250 μL/well of HBSS +5% FCCS to the plank (no primary antibody wells) or 250 μL/well of primary antibody diluted in HBSS +5% FCS. Incubate for 30 minutes at 37° C. Wash the wells twice with 0.5 mL/well HBSS or PBS and gently tap the plates onto paper towels after the last wash. Add 250 μL/well of HRP-conjugated second antibody diluted in HBSS +5% FCS to every well including the blank wells (no primary antibody). Incubate at 37° C. for 30 minutes. Wash the wells four times with 0.5 mL/well HBSS or PBS and gently tap the plates onto paper towels after the last wash. Add 250 μL/well of substrate solution. Incubate at room temperature in the dark until there is adequate color development (blue). Note the length of time incubation was performed (typically 15-30 minutes). Add 75 μL/well stopper solution (8N sulfuric acid), and read A450 nm.

Molecule | IC50 | VCAM-1 % inhibition at [μM]
2,6-di-tert-butyl-4-thio(3′,5′-ditert-butyl,4′-hydroxy butanedioic acid ester)phenol | 6 µM | –
CC(=O)OC(C)(C)CSc1cc(C(C)(C)C)c(O)c(C(C)(C)C)c1 [2,6-di-tert-butyl-4-thio(2′-acetoxy,2′-methylpropyl)phenol] | 50 µM | –
CN(C)CCCSc1cc(C(C)(C)C)c(O)c(C(C)(C)C)c1 [2,6-di-tert-butyl-4-thio(3′-(dimethylamino)propyl))phenol] | – | 30% at 50
CC(C)(C)c1cc(SCCCS(=O)(=O)O)cc(C(C)(C)C)c1O [2,6-di-tert-butyl-4-thio(3′-propanesulfonic acid)phenol] | – | 25% at 50
CC(C)(C)c1cc(SCCc2ccc([N+](=O)[O-])cc2)cc(C(C)(C)C)c1O [2,6-di-tert-butyl-4-thio(4′-nitrophenethyl)phenol] | 15 µM | –
CC(C)(C)c1cc(SCCCC(=O)O)cc(C(C)(C)C)c1O [2,6-di-tert-butyl-4-thio(butanoic acid)phenol] | 75 µM | –
CC(C)(C)c1cc(SCc2ccc(C(=O)O)o2)cc(C(C)(C)C)c1O [2,6-di-tert-butyn4-thio((2′-furancarboxylic acid)-5-methyl)phenol] | 40 µM | –
CC(C)(Sc1cc(C(C)(C)C)c(O)c(C(C)(C)C)c1)Sc1cc(C(C)(C)C)c(OCC2OC2CO)c(C(C)(C)C)c1 (centres unmarked) [Oxiranemethanol, 3-[[4-[[1-[[3,5-bis(1,1-dimethylethyl)-4-hydroxyphenyl]thio]-1-methylethyl]thio]-2,6-bis(1,1-dimethylethyl)phenoxy]methyl]-] | > 100 µM | –
CC(C)(Sc1cc(C(C)(C)C)c(O)c(C(C)(C)C)c1)Sc1cc(C(C)(C)C)c(OCC(O)C2CO2)c(C(C)(C)C)c1 (stereo not drawn) [Oxiranemethanol, α-[[4-[[1-[[3,5-bis(1,1-dimethylethyl)-4-hydroxyphenyl]thio]-1-methylethyl]thio]-2,6-bis(1,1-dimethylethyl)phenoxy]methyl]-] | 45 µM | –
CC1(C)OC2OC(COc3c(C(C)(C)C)cc(SC(C)(C)Sc4cc(C(C)(C)C)c(O)c(C(C)(C)C)c4)cc3C(C)(C)C)C3OC(C)(C)OC3C2O1 [α-D-Galactopyranose, 60-[4-[[1-[[3,5-bis(1,1-dimethylethyl)-4-hydroxyphenyl]thio]-1-methylethyl]thio]-2,6-bis(1,1-dimethylethyl)phenyl]-1,2:3,4-bis-O-(1-methylethylidene)] | 45 µM | –
Oxiranemethanol, α-[[[3-[[4-[[1-[[3,5-bis(1,1-dimethylethyl)-4-hydroxyphenyl]thio]-1-methylethyl]thio]-2,6-bis(1,1-dimethylethyl)phenoxy]methyl]oxiranyl]methoxy]methyl]- | 60 µM | –
